Experimental data: publication PMC10157890, “Lysine Deacetylase Substrate Selectivity: Distinct Interaction Surfaces Drive Positive and Negative Selection for Residues Following Acetyllysine” (Biochemistry, 2023)

Key:
Full-length human KDAC8 = biological target: T1, Full-length human KDAC8 (Homo sapiens, UniProt Q9BY41); assay: Activity of KDAC8 with putative substrate peptides (verification of substrate preferences); type: biochemical; settings: endpoint, 100 μM peptide, buffer also containing 100 mM KCl; for specific activity, KDAC8 with putative substrates (no activity above limit): limit of reliable detection 0.0004 s^–1; for specific activity, KDAC8 with putative substrates: 50–200 nM KDAC, 25 °C, pH 7.6, 15–60 min, average ± SD, SD
T1 construct: Full-length human KDAC8 (UniProtKB Q9BY41) was recombinantly expressed fused to a C-terminal His6 tag; TEV protease cleavage site (C); His6 (C); made in house; host or cells: Escherichia coli
T1 sequence (Q9BY41 1-377): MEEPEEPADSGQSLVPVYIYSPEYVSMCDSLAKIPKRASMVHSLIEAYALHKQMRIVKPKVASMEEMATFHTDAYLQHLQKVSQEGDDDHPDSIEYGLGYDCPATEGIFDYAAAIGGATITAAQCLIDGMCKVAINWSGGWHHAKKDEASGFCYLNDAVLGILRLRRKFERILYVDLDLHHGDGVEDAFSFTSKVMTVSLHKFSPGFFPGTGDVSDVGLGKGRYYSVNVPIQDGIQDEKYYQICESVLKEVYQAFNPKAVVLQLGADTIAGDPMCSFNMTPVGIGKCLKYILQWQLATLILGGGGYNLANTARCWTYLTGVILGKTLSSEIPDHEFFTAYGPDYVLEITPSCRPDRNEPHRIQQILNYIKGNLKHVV
Protocol: (§1) Peptide substrates were synthesized to >95% purity (GenScript) with N-terminal acetylation and C-terminal amidation. For endpoint experiments, 100 μM peptide substrates were reacted with 50–200 nM KDAC at 25 °C at pH 7.6 for 15–60 min. Deacetylation was measured using a fluorescamine-based assay that was previously described in detail.[18] Reported raw activity for each enzyme–substrate pair is the average and standard deviation for n ≥ 4 unless otherwise noted. Normalized activity was calculated by defining the activity of each KDAC with the FRK^acWR peptide equal to 1. Statistical significance was determined by calculating p values using two-tailed t-tests, assuming similar variance. The significance threshold was set at p ≤ 0.01 with the Bonferroni correction for multiple testing. Kinetic parameters were determined for a subset of enzyme–substrate pairs. In these experiments, 50–200 nM KDAC was reacted with ≥5 substrate concentrations from 10 to 2500 nM and ≥3 timepoints at intervals of 3–20 min were collected for each substrate concentration. Deacetylation was measured using the same method as the endpoint experiments, and KM and kcat were calculated from the observed activity of each reaction as previously described.[18] Activity assays with peptides for verification of substrate preferences were performed as for endpoint experiments, except in a buffer also containing 100 mM KCl. Statistical analysis of the correlation of the presence of particular substrate residues with activity was performed using Fisher’s exact test with a significance threshold of p ≤ 0.05.
We performed a similar experiment for KDAC8, this time using substrates that have been described as potential KDAC8 substrates from cell-based studies or which contained residues in the +1 and/or +2 positions that were identified to enhance activity of KDAC8. […] In addition, we also considered phenylalanine, as we did for KDAC6. Here, we looked at the correlation between peptides having any of these features and activity. While the result was less striking than for KDAC6, there was still a positive correlation between the presence of the identified residues and activity (Table 3; p = 0.048). Although we have identified only a portion of the interactions that likely contribute to substrate selectivity for these enzymes, these interactions correlate with a statistically significant increase in activity with peptides from potential biological substrates in an unbiased background of residues in other positions.

full-length human KDAC6 = biological target: T2, full-length human KDAC6 (Homo sapiens, UniProt Q9UBN7); assay: Activity of KDAC6 with putative substrate peptides (verification of substrate preferences); type: biochemical; settings: endpoint, 100 μM peptide, buffer also containing 100 mM KCl; for specific activity, KDAC6 with putative substrates: 50–200 nM KDAC, 25 °C, pH 7.6, 15–60 min, average ± SD, SD
T2 construct: A pFastbac1 construct containing full-length human KDAC6 (UniProtKB Q9UBN7) with a C-terminal His6 tag; His6 (C); made in house; host or cells: ExpiSf9 insect cells (baculovirus)
T2 sequence (Q9UBN7 1-1215): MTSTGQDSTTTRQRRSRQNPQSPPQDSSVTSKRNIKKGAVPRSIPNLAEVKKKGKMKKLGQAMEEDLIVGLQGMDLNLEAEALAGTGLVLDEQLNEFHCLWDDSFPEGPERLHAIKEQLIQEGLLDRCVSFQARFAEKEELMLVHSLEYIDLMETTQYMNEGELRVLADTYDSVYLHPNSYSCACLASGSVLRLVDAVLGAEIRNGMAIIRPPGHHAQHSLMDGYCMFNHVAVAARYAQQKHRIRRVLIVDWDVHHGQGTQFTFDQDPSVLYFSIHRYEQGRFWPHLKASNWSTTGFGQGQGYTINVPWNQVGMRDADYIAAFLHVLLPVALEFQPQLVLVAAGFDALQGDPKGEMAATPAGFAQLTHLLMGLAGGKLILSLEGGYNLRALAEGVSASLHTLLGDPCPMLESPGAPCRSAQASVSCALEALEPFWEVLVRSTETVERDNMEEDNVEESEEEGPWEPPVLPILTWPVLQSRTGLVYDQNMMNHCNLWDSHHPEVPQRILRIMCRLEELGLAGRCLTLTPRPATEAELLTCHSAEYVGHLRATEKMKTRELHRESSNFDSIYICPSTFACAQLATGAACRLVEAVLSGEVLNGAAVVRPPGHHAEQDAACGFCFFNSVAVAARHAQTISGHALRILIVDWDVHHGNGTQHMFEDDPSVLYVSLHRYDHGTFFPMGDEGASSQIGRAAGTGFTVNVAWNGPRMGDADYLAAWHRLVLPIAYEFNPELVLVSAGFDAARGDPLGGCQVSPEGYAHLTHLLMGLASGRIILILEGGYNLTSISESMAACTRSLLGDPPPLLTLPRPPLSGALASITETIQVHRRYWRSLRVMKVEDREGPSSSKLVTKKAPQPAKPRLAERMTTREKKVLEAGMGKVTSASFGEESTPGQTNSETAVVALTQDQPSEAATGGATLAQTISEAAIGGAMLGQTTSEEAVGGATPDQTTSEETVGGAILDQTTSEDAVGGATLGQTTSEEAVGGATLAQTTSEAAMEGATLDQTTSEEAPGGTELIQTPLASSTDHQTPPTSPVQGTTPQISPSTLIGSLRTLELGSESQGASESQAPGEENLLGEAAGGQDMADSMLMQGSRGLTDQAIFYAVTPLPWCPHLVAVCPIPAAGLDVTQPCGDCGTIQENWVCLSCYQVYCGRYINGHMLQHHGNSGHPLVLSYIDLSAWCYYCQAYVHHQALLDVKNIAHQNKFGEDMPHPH
Protocol: as §1
In contrast with the peptides tested thus far, which were all derivatives of a single substrate, these panels consisted of peptides derived from human proteins in which the lysine residue is known to be acetylated in cells.[3],[5],[42],[50]−[72] For each enzyme, peptides were included either because they contained an acetyllysine that has been identified as a putative substrate of the KDAC from published cellular studies and/or because the peptide contained a residue that appeared to drive KDAC activity in our analysis. For KDAC6, we observed that of the set of peptides that were tested, six contained tryptophan or tyrosine directly after the acetyllysine. Remarkably, all of these peptides appeared in the top seven most reactive substrates tested (Table 2). Assuming that phenylalanine would behave similarly to tryptophan and tyrosine, we determined that there was a statistically significant correlation between whether or not a peptide was deacetylated by KDAC6 and the presence of tyrosine, tryptophan, or phenylalanine in the +1 position (p = 0.011). […] Thus, our conclusion that the presence of these aromatic residues in the +1 position relative to the acetyllysine is a major factor promoting KDAC6 activity has predictive utility and provides some understanding of the underlying mechanistic basis.

Substance	specific activity, KDAC8 with putative substrates (no activity above limit) (Full-length human KDAC8)	specific activity, KDAC6 with putative substrates (no activity above limit) (full-length human KDAC6; limit of reliable detection 0.0013 s^–1)	specific activity, KDAC6 with putative substrates (full-length human KDAC6) [s^–1]	specific activity, KDAC8 with putative substrates (Full-length human KDAC8) [s^–1]
GTAK^acSVT [acetyllysine peptide from cellular tumor antigen p53 (P04637)]	– (– indicates no activity above the limit of reliable detection (0.0004 s^–1))	– (– indicates no activity above the limit of reliable detection (0.0013 s^–1))	–	–
GVGK^acYIN [acetyllysine peptide from RING-type E3 ubiquitin-protein ligase PPIL2 (Q13356)]	– (– indicates no activity above the limit of reliable detection (0.0004 s^–1))	–	0.055 ± 0.024	–
LSGK^acEIN [acetyllysine peptide from serine/arginine-rich splicing factor 5 (Q13243)]	– (– indicates no activity above the limit of reliable detection (0.0004 s^–1))	–	0.024 ± 0.005	–
QLSK^acWP [acetyllysine peptide from forkhead box protein O3 (O43524)]	–	–	0.14 ± 0.03	0.020 ± 0.006
SDMK^acHWP [acetyllysine peptide from heat shock 70 kDa protein 1A/1B (P0DMV8/P0DMV9)]	– (– indicates no activity above the limit of reliable detection (0.0004 s^–1))	–	0.013 ± 0.009	–
SHLK^acAHL [acetyllysine peptide from transcription factor Sp7 (Q8TDD2)]	– (– indicates no activity above the limit of reliable detection (0.0004 s^–1))	–	0.024 ± 0.013	–
TGNK^acYVP [acetyllysine peptide from tubulin β-3 chain (Q13509)]	–	–	0.10 ± 0.04	0.0011 ± 0.0006
